# Measurements from the kinase profiling compilation of Christmann-Franck et al. (2016).
# How the values were obtained:
# Experiment in all cases: radiometric filter-binding kinase assay, Kinase HotSpot
# Conditions in all cases: compound 0.5 µM; ATP 10 µM
# ROS1 (human) = ROS1 (human) (UniProt P08922)
# STK10 (human) = STK10 (human) (UniProt O94804)
# STK16 (human) = STK16 (human) (UniProt O75716)
# DYRK1B (human) = DYRK1B (human) (UniProt Q9Y463)
# CDK1 CCNB1 (human) = CDK1 CCNB1 (human) (UniProt P06493+P14635)
# AURKC (human) = AURKC (human) (UniProt Q9UQB9)
# PRKCZ (human) = PRKCZ (human) (UniProt Q05513)
# PAK7 (human) = PAK7 (human) (UniProt Q9P286)
# ERBB4 (human) = ERBB4 (human) (UniProt Q15303)
# EPHA2 (human) = EPHA2 (human) (UniProt P29317)
# CSK (human) = CSK (human) (UniProt P41240)
# CAMK2B (human) = CAMK2B (human) (UniProt Q13554)
# WEE1 (human) = WEE1 (human) (UniProt P30291)
# CAMK1 (human) = CAMK1 (human) (UniProt Q14012)
# PRKCB1 (human) = PRKCB1 (human) (UniProt P05771)
# TEK (human) = TEK (human) (UniProt Q02763)
# STK4 (human) = STK4 (human) (UniProt Q13043)
# PDGFRA (human) = PDGFRA (human) (UniProt P16234)
# AKT2 (human) = AKT2 (human) (UniProt P31751)
# CSNK2A1 (human) = CSNK2A1 (human) (UniProt P68400)
# MAP3K7 TAB1 (human) = MAP3K7 TAB1 (human) (UniProt O43318+Q15750)
# MAPK10 (human) = MAPK10 (human) (UniProt P53779)
# AURKB (human) = AURKB (human) (UniProt Q96GD4)
# KIT (human) = KIT (human) (UniProt P10721)
# ZAP70 (human) = ZAP70 (human) (UniProt P43403)
# BRSK2 (human) = BRSK2 (human) (UniProt Q8IWQ3)
# MAP3K9 (human) = MAP3K9 (human) (UniProt P80192)
# MAP3K2 (human) = MAP3K2 (human) (UniProt Q9Y2U5)
# MAP3K14 (human) = MAP3K14 (human) (UniProt Q99558)
# PRKD3 (human) = PRKD3 (human) (UniProt O94806)
# CAMK2D (human) = CAMK2D (human) (UniProt Q13557)
# RAF1 (human) = RAF1 (human) (UniProt P04049)
# MAP3K11 (human) = MAP3K11 (human) (UniProt Q16584)
# SRMS (human) = SRMS (human) (UniProt Q9H3Y6)
# CDK6 CCND1 (human) = CDK6 CCND1 (human) (UniProt Q00534+P24385)
# SYK (human) = SYK (human) (UniProt P43405)
# IKBKE (human) = IKBKE (human) (UniProt Q14164)
# PDPK1 (human) = PDPK1 (human) (UniProt O15530)
# CAMK1G (human) = CAMK1G (human) (UniProt Q96NX5)
# PRKG2 (human) = PRKG2 (human) (UniProt Q13237)
# CDK9 CCNK (human) = CDK9 CCNK (human) (UniProt O75909+P50750)
# MAP3K3 (human) = MAP3K3 (human) (UniProt Q99759)
# CAMK2B (human), sequence (Q13554 whole entry, looked up): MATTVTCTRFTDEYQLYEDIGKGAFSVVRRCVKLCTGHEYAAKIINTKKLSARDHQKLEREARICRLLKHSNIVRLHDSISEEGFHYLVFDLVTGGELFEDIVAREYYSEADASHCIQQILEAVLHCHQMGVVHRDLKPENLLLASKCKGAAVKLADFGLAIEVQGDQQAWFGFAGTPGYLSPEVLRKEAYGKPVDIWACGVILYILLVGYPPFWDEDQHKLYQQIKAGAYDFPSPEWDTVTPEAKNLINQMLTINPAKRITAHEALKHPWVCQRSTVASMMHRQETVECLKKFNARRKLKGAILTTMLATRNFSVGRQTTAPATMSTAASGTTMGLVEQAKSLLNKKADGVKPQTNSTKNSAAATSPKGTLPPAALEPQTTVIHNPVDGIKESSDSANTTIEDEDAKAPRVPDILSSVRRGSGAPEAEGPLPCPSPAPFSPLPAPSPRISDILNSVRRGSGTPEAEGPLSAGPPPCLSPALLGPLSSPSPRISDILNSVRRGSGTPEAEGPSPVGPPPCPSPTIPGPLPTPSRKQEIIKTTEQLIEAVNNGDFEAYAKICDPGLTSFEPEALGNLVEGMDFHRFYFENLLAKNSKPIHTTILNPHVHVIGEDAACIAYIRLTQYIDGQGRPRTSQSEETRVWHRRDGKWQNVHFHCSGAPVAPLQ
# STK16 (human), sequence (O75716 whole entry, looked up): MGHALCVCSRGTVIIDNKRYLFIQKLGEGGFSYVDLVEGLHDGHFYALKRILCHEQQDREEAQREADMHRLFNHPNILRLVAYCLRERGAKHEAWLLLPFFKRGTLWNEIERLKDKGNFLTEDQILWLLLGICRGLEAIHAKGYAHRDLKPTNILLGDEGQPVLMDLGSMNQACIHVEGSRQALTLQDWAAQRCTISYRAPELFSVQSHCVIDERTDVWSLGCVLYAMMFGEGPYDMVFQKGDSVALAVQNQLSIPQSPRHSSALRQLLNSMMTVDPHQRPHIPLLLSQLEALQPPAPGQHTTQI
# ROS1 (human), sequence (P08922 whole entry, looked up): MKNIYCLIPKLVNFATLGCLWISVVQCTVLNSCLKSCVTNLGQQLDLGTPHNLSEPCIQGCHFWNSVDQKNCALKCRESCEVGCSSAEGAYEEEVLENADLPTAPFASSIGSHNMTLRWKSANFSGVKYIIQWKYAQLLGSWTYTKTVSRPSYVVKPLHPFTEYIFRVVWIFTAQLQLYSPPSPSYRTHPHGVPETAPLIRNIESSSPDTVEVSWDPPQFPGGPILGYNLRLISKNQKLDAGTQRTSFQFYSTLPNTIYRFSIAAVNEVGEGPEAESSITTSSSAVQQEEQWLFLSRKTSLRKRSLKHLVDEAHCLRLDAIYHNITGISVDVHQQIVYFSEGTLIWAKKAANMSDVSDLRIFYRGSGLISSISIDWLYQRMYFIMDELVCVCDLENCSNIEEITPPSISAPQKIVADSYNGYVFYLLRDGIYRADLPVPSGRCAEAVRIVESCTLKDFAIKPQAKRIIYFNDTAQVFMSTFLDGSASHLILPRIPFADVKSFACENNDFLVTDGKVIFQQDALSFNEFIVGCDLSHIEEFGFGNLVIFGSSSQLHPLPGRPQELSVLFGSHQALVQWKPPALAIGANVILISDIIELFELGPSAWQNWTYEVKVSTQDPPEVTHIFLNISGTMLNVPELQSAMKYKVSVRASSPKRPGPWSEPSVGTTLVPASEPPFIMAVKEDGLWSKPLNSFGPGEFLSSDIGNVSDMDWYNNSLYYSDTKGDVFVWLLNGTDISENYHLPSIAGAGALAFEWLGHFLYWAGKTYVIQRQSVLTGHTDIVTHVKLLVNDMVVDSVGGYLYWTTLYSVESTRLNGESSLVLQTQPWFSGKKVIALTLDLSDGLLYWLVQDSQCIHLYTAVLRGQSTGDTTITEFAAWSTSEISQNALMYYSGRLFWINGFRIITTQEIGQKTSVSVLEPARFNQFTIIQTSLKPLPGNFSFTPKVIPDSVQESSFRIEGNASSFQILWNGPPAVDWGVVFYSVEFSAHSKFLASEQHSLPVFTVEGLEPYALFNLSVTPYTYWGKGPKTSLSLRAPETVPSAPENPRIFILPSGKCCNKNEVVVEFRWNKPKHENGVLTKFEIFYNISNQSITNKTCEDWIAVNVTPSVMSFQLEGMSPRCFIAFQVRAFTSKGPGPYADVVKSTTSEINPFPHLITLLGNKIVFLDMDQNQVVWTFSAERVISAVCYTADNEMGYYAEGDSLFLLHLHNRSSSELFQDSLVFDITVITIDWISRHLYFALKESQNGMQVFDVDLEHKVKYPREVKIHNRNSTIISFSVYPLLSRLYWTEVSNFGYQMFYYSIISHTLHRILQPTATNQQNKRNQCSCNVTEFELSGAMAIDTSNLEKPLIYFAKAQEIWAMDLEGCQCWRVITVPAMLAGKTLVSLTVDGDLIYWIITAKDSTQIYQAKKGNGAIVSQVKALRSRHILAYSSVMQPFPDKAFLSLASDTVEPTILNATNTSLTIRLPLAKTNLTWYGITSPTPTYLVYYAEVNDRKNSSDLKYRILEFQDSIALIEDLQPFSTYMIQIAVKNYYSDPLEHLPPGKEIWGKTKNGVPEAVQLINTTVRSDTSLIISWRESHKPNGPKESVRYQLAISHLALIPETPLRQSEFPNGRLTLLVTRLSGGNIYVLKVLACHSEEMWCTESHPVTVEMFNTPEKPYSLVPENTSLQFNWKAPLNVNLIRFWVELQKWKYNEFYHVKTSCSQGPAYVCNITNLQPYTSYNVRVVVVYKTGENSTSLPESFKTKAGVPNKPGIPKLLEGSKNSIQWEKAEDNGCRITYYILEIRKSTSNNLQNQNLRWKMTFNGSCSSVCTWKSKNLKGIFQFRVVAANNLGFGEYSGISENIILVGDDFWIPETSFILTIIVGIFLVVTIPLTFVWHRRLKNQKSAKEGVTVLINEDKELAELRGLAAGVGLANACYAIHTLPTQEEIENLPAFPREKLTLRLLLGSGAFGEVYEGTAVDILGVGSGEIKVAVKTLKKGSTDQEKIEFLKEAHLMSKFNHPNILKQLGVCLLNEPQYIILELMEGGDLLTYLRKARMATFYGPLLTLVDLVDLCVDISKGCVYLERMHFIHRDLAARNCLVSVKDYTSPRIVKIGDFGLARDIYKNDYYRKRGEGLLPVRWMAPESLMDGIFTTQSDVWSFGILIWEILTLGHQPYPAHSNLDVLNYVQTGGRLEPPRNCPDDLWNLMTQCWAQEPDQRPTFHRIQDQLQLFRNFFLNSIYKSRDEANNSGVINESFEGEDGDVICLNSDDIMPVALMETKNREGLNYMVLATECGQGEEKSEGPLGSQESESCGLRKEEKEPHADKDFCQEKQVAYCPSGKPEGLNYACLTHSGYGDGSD
# AKT2 (human), sequence (P31751 whole entry, looked up): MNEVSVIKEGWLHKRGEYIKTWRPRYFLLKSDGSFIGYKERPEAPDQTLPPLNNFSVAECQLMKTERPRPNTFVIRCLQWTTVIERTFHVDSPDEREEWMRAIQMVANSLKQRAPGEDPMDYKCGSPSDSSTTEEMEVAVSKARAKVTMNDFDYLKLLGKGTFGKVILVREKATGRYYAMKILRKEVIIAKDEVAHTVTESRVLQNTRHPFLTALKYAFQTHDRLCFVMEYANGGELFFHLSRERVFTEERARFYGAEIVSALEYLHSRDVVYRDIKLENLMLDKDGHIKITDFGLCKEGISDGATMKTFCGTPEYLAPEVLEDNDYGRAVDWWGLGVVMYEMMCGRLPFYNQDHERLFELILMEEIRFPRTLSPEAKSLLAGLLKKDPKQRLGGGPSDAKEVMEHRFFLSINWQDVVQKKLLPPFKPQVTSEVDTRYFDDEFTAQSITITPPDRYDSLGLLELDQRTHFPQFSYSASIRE
# PAK7 (human), sequence (Q9P286 whole entry, looked up): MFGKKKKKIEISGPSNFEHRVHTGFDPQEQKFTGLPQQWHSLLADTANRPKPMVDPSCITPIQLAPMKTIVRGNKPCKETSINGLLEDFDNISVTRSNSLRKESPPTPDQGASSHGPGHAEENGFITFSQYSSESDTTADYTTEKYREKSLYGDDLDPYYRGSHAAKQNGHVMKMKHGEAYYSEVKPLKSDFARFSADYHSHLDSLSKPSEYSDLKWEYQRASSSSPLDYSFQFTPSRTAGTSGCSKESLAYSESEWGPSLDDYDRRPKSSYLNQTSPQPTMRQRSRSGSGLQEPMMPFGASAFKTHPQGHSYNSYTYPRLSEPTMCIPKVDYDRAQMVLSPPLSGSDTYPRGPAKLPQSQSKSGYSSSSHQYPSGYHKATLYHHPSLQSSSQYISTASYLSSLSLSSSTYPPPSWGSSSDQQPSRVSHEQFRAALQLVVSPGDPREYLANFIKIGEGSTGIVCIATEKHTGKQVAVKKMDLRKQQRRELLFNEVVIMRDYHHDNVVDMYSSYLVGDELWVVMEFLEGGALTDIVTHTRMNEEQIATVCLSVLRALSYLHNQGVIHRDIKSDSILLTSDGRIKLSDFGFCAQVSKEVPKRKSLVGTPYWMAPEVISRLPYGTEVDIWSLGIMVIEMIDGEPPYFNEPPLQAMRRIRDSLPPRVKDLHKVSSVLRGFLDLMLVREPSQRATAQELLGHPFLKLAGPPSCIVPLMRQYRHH
# AURKB (human), sequence (Q96GD4 whole entry, looked up): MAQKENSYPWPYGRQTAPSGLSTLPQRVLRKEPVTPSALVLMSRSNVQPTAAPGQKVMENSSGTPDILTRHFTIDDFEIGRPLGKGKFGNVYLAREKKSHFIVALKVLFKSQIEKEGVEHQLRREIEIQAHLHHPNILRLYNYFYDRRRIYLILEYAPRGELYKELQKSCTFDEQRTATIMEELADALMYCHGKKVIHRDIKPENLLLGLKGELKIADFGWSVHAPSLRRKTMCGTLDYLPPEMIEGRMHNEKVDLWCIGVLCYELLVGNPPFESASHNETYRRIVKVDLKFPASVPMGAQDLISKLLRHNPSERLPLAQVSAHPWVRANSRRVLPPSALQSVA
structure (smiles),measurement,setting,value
Cc1cc2ncc(-c3ccccc3)nc2cc1C,residual activity,ROS1 (human),100%
same,residual activity,STK10 (human),90.7%
same,residual activity,STK16 (human),108%
same,residual activity,DYRK1B (human),106%
same,residual activity,CDK1 CCNB1 (human),108%
same,residual activity,AURKC (human),92.1%
same,residual activity,PRKCZ (human),88.6%
same,residual activity,PAK7 (human),96.9%
same,residual activity,ERBB4 (human),96.4%
same,residual activity,EPHA2 (human),103%
same,residual activity,CSK (human),96.5%
same,residual activity,CAMK2B (human),101%
same,residual activity,WEE1 (human),105%
same,residual activity,CAMK1 (human),96.2%
same,residual activity,PRKCB1 (human),103%
same,residual activity,TEK (human),99.7%
same,residual activity,STK4 (human),98.6%
same,residual activity,PDGFRA (human),95.4%
same,residual activity,AKT2 (human),99.7%
same,residual activity,CSNK2A1 (human),102%
same,residual activity,MAP3K7 TAB1 (human),89.9%
same,residual activity,MAPK10 (human),103%
same,residual activity,AURKB (human),85.4%
same,residual activity,KIT (human),63.5%
same,residual activity,ZAP70 (human),96.7%
same,residual activity,BRSK2 (human),102%
same,residual activity,MAP3K9 (human),92.6%
same,residual activity,MAP3K2 (human),105%
same,residual activity,MAP3K14 (human),112%
same,residual activity,PRKD3 (human),92.2%
same,residual activity,CAMK2D (human),88.1%
same,residual activity,RAF1 (human),95.6%
same,residual activity,MAP3K11 (human),97.3%
same,residual activity,SRMS (human),93.5%
same,residual activity,CDK6 CCND1 (human),87.1%
same,residual activity,SYK (human),97.4%
same,residual activity,IKBKE (human),101%
same,residual activity,PDPK1 (human),103%
same,residual activity,CAMK1G (human),101%
same,residual activity,PRKG2 (human),99.3%
same,residual activity,CDK9 CCNK (human),101%
same,residual activity,MAP3K3 (human),103%
CC(C)n1cnc2c(Nc3cccc(Cl)c3)nc(NCCO)nc21,residual activity,ROS1 (human),102%
same,residual activity,STK10 (human),86.9%
same,residual activity,STK16 (human),89.8%
same,residual activity,DYRK1B (human),78.8%
same,residual activity,CDK1 CCNB1 (human),46.6%
same,residual activity,AURKC (human),92.1%
same,residual activity,PRKCZ (human),97.8%
same,residual activity,PAK7 (human),80.4%
same,residual activity,ERBB4 (human),101%
same,residual activity,EPHA2 (human),93.3%
same,residual activity,CSK (human),98.2%
same,residual activity,CAMK2B (human),95.9%
same,residual activity,WEE1 (human),98.9%
same,residual activity,CAMK1 (human),71.2%
same,residual activity,PRKCB1 (human),102%
same,residual activity,TEK (human),97.4%
same,residual activity,STK4 (human),93.1%
same,residual activity,PDGFRA (human),96.4%
same,residual activity,AKT2 (human),92.4%
same,residual activity,CSNK2A1 (human),83.8%
same,residual activity,MAP3K7 TAB1 (human),92.7%
same,residual activity,MAPK10 (human),101%
same,residual activity,AURKB (human),106%
same,residual activity,KIT (human),76.3%
same,residual activity,ZAP70 (human),98.3%
same,residual activity,BRSK2 (human),95%
same,residual activity,MAP3K9 (human),27.2%
same,residual activity,MAP3K2 (human),97.6%
same,residual activity,MAP3K14 (human),97.4%
same,residual activity,PRKD3 (human),88.4%
same,residual activity,CAMK2D (human),84.2%
same,residual activity,RAF1 (human),105%
same,residual activity,MAP3K11 (human),51%
same,residual activity,SRMS (human),85.1%
same,residual activity,CDK6 CCND1 (human),95.5%
same,residual activity,SYK (human),85.1%
same,residual activity,IKBKE (human),97.6%
same,residual activity,PDPK1 (human),96.8%
same,residual activity,CAMK1G (human),98.7%
same,residual activity,PRKG2 (human),82.7%
same,residual activity,CDK9 CCNK (human),86.9%
same,residual activity,MAP3K3 (human),97.4%
O=C(NC(NC(=S)Nc1ccc(F)c([N+](=O)[O-])c1)C(Cl)(Cl)Cl)C(c1ccccc1)c1ccccc1 (stereo unspecified),residual activity,ROS1 (human),99.5%
same,residual activity,STK10 (human),108%
same,residual activity,STK16 (human),99.4%
same,residual activity,DYRK1B (human),103%
same,residual activity,CDK1 CCNB1 (human),92.1%
same,residual activity,AURKC (human),93.8%
same,residual activity,PRKCZ (human),98%
same,residual activity,PAK7 (human),104%
same,residual activity,ERBB4 (human),103%
same,residual activity,EPHA2 (human),103%
same,residual activity,CSK (human),99.3%
same,residual activity,CAMK2B (human),104%
same,residual activity,WEE1 (human),91.8%
same,residual activity,CAMK1 (human),93.1%
same,residual activity,PRKCB1 (human),103%
same,residual activity,TEK (human),97.8%
same,residual activity,STK4 (human),96.2%
same,residual activity,PDGFRA (human),100%
same,residual activity,AKT2 (human),91.6%
same,residual activity,CSNK2A1 (human),95.4%
same,residual activity,MAP3K7 TAB1 (human),89.7%
same,residual activity,MAPK10 (human),96.2%
same,residual activity,AURKB (human),95.3%
same,residual activity,KIT (human),97.2%
same,residual activity,ZAP70 (human),94.2%
same,residual activity,BRSK2 (human),102%
same,residual activity,MAP3K9 (human),94%
same,residual activity,MAP3K2 (human),96.8%
same,residual activity,MAP3K14 (human),92.1%
same,residual activity,PRKD3 (human),98.5%
same,residual activity,CAMK2D (human),102%
same,residual activity,RAF1 (human),95.3%
same,residual activity,MAP3K11 (human),102%
same,residual activity,SRMS (human),96.9%
same,residual activity,CDK6 CCND1 (human),101%
same,residual activity,SYK (human),104%
same,residual activity,IKBKE (human),106%
same,residual activity,PDPK1 (human),112%
same,residual activity,CAMK1G (human),102%
same,residual activity,PRKG2 (human),96.6%
same,residual activity,CDK9 CCNK (human),110%
same,residual activity,MAP3K3 (human),118%
